Reference: patent publication US11058696B2, “Substituted bicyclic compounds” (BRISTOL-MYERS SQUIBB COMPANY, priority 2014, dated 2021)

Tests used:
[1] = target: S1P1 (membranes prepared from S1P1/CHO cells) (Homo sapiens (Human), UniProt P21453); experiment: Receptor [35S] GTPγS Binding Assay (S1P1 GTPγS); format: biochemical; conditions: GTPγS S1P1 versus GTPγS S1P3 binding assays
Experimental: Receptor [^35S] GTPγS Binding Assays: (S1P1 GTPγS/S1P3 GTPγS)
Compounds were loaded in a 384 Falcon v-bottom plate (0.5 μl/well in a 11 point, 3-fold dilution). Membranes prepared from S1P1/CHO cells or EDG3-Gal5-bla HEK293T cells (EDG3 equivalent S1P3) were added to the compound plate ([…], final protein 3 μg/well) with MULTIDROP®. [^35S]GTP (1250 Ci/mmol, Perkin Elmer) was diluted in assay buffer: 20 mM HEPES, pH7.5, 10 mM MgCl2, 150 mM NaCl, 1 mM EGTA (ethylene glycol tetraacetic acid), 1 mM DTT (Dithiothreitol), 10 μM GDP, 0.1% fatty acid free BSA, and 10 μg/ml Saponin to 0.4 nM. 40 μl of the [^35S] GTP solution was added to the compound plate with a final concentration of 0.2 nM. The reaction was kept at room temperature for 45 min. At the end of incubation, all the mixtures in the compound plate were transferred to Millipore 384-well FB filter plates via the VELOCITY11® Vprep liquid handler. The filter plate was washed with water 4 times by using the manifold Embla plate washer and dried at 60° C. for 45 min. MicroScint 20 scintillation fluid (30 μl) was added to each well for counting on the Packard TOPCOUNT®.
A larger value for the GTPγS S1P3 EC50 value indicated less activity in the GTPγS S1P3 binding assay.

[2] = tested on: spontaneous lupus, anti-dsDNA antibodies and kidney histology; experiment: MRL/lpr Lupus Model; format: in vivo; conditions: MRL/lpr mice, p.o. daily
Source text: MRL/lpr Lupus Model: MRL/lpr is a spontaneous model of lupus. Male MRL/lpr mice (Jackson Laboratory) at the age of 12-14 weeks were enrolled for the study (N=12). […] Mice were bled every other week for anti-dsDNA antibodies measured by ELISA using pooled serum from diseased MRL/lpr mice as a positive comparator in each assay. The data were expressed in arbitrary units as a ratio of the titer of the test serum to the titer of the pooled MRL/lpr immune serum. At the end of study, one kidney was collected into 10% neutral buffered formalin and ZincTris fixatives. Fixed tissues were processed into paraffin blocks, sectioned at 3 μm, and stained with H&E or PASH. Kidney sections were graded using following criteria: Glomerular Damage: 1. Mesangial matrix thickening, cell proliferation, 2. Crescent formation, cellular deposits/casts in Bowman's space, 3. Cellular infiltration, mononuclear cells in glomerular tufts, 4. Fibrosis of Bowman's capsule. Tubular damage: 1. Infiltration of mononuclear cells, 2. Severity of tubular damage, 3. Protein casts. Tubulo-interstitial damage: 1. Fibrosis, 2. Infiltration of mononuclear cells. Each subcategory was assigned a score from 0-4, with the scores for glomerular indices representing the mean from 20 glomeruli per kidney. The total score for each mouse was the sum of the above 9 subcategories, with the highest possible score=36.

Chain of S1P1 (membranes prepared from S1P1/CHO cells) (P21453 whole entry): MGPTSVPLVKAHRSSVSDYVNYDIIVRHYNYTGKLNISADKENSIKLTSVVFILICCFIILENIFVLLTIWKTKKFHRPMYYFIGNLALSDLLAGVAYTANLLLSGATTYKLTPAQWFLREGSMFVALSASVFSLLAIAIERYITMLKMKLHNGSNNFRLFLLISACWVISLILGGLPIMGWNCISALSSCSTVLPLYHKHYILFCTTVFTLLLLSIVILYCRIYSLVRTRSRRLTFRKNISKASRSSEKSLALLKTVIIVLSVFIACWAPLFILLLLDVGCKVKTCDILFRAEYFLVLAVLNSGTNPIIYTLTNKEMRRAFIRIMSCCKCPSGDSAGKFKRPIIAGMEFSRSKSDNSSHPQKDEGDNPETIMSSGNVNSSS

| SMILES | activity as an agonist of S1P1 and selectivity over S1P3 [1] | inhibition of disease progression as measured by anti-dsDNA titers and kidney histology [2] |
| --- | --- | --- |
| COCCCCCC1CCc2cc([C@H]3CC[C@](N)(COP(=O)(O)O)C3)ccc2C1 (single isomer, unassigned) [Example 689] | possessed activity as an agonist of S1P1 and is selective over S1P3 | – |
| COc1ccccc1CC[C@@H]1CCc2cc([C@H]3CC[C@](N)(CO)C3)ccc2C1 [Example 681, ((1R,3S)-1-amino-3-((S)-6-(2-methoxyphenethyl)-5,6,7,8-tetrahydronaphthalen-2-yl)cyclopentyl)methanol] | – | showed inhibition of disease progression |
